Assay type in all cases: physicochemical
Data set [1] can be described thus: Intrinsic pKa and intrinsic solubility from the model applied to literature titration data (Bjerrum plots).
Text: Since raw data formats were unavailable, we used WebPlotDigitizer to extract data from Bjerrum plots.[28],[29] Additionally, we used the equation for bound hydrogen ions per substance molecule to reverse engineer equivalent titrant added during the titration.[30] According to the model, any protonizable compound exists in three forms, the charged-dissolved form, the uncharged-dissolved form, and the uncharged-nondissolved (aggregated) form. We use the concept of 'the active concentration of an aggregate (precipitate)'. This concentration is mathematically equal to the amount of aggregate divided by volume of solution. This aggregate remains undissolved and is at an equilibrium (thermodynamic) concentration. The uncharged form of the ICPD47 compound exists in two forms, the dissolved form [ROH] and the aggregated form [ROH↓]. Furthermore, the total concentration of the ICPD47 compound, C, is equal to the sum of all three forms of the compound and includes the deprotonated concentration [RO^-]: [drawing 1] 1 Here we assume that the deprotonated form is highly soluble and there is no need to consider the aggregated form of the negatively charged deprotonated compound. […] A is inversely proportional to the intrinsic solubility, S, and is expressed and rearranged to [drawing 7] 7 [drawing 8] […] 12 cannot be expressed as a function pH = f([Hadd^+]), but may be solved numerically.
Data set [2] is described as follows: Intrinsic pKa and intrinsic solubility of ICPD47 from pKa shift (spectrophotometric and potentiometric titration, linked ionization-dissolution model). The following applies: 25 °C, pKa shift model. As for the experimental part: (§1) The compound ICPD47 is sparingly soluble at near-neutral pH. Solubility is approximately equal to or below 100 μM. The solutions exceeding the solubility limit (0.25, 0.5, and 1.0 mM) were prepared by adding 1.5 equiv of NaOH (0.375 0.75, and 1.5 mM, respectively; 0.5 equiv excess), thus shifting the compound to its highly soluble deprotonated negatively charged form. The deprotonated solutions were titrated with […] more concentrated HCl (2.5 mM; 5.0 mM; and 10 mM) containing the same concentration of DMSO as in the analyte solution (2.0% in all solutions).
The pH titration was performed with a 250 μL syringe that was filled with the titrant (acid), and the needle was placed into the sample cell filled with 2.5 mL of analyzed solution. A pH microelectrode was also inserted into the same cell. […] The analyzed solution was mixed after each injection using a pipet. The pH was measured potentiometrically using a Mettler Toledo MP220 pH meter with a combined glass InLab Microelectrode. […] The pH measurements were recorded only when the pH measurement instability was less than 0.01 min^–1. […]
The ICPD47 compound solutions were prepared in the universal buffer of different pH values from 4.5 to 10.5 at every 0.5 pH unit. […] The absorbance was measured with an Agilent 8453 UV–vis spectrophotometer using the same 2.5 mL cuvette as for potentiometric titration. […]

A short description of data set [3]: Chemical stability in acid and base. The following applies: pH 2.0 to 12.0.
The nature of data set [4]: Solubility at near-neutral pH. Particulars: aqueous buffer. The method, then:
as §1

Results on 2 compounds are retold here after article PMC10688098, “Intrinsic Solubility of Ionizable Compounds from pKa Shift” (ACS Omega, 2023).

Values after ≈ are worked out from the molar mass of the structure shown. Bounds are passed on as bounds.

In the case of `CN(C)CCCOc1nn(Cc2ccccc2)c2ccccc12` [benzydamine], the pKa (usually the negative logarithm of the acid dissociation constant) in data set [1] (model fit to literature titration data, value at infinite dilution) was determined as 9.6. The amount in solution in data set [1] (water, thermodynamic from solid, model fit to literature titration data (ref 5, 22, 23)) (solubility) came to 270 µM (≈ 83.5 µg/mL).

Turning to `CCOc1ccc(-c2snnc2-c2cc(Cl)c(O)cc2O)cc1` [ICPD47], the solubility (in general, the concentration that dissolves in the medium under given conditions) is approximately 75 µM in data set [2] (aqueous buffer, kinetic from dmso stock, aqueous universal buffer / titration with DMSO, read-out: Intrinsic solubility of the uncharged form) and not above 100 µM in data set [4]. Moreover, the pKa in data set [2] (read-out: Intrinsic pKa (model estimate)) is 6.85. Also, in data set [3], the “Chemical stability in acid and base” value is “chemically stable in acid and base”.
